# From US10094834B2, “Method of selecting individualized brain cancer therapy” (TURUN YLIOPISTO, priority 2012, dated 2018)
# “Also recorded” adds a separate entry of the source.
# What was measured:
# Format in all cases: cell-based, human
# [1] = tested on: U251MG glioblastoma cells; assay: Colony formation assay, U251MG; conditions: PME-1 depleted versus scrambled siRNA, 2 days of treatment
# Text: (§1) Cells plated in very low density (4-6×10^3) in 6-well plates were allowed to grow for about 7 days until they form small colonies. These cells were then transfected with Scrambled or PME-1 siRNA using Lipofectamine RNAiMAX reagent (Invitrogen) according to the manufacturer's instructions. After 48 hrs, treatments were given with indicated concentration of chemical drugs for another 48 hrs. Cell colonies were washed with PBS, fixed with 3.7% formaldehyde and stained with 0.2% crystal violet solution (made in 10% ethanol) for 15 minutes at room temperature each. Excess stain was removed by repeated washings with PBS. Plates were dried and pictures were taken with Olympus SP-600UZ camera or Epson perfection […] scanner and analysed with ImageJ.
# [2] = tested on: U87MG glioblastoma cells; assay: Colony formation assay, U87MG; conditions: PME-1 depleted versus scrambled siRNA, 2 days of treatment
# Text: as §1
# [3] = tested on: T98G glioblastoma cells; assay: Apoptosis assay by sub-G0/G1 fraction estimation (nuclear fragmentation, PI/FACS); conditions: for apoptotic nuclear fragmentation (sub-G0/G1 fraction): T98G cells depleted of PME-1 (PME-1 siRNA 48 hrs), drug treatment 24 hrs; for effect on PME-1 siRNA and STS mediated apoptosis (nuclear fragmentation): T98G
# Description: The percentage of the sub-G0/G1 fraction containing fragmented nuclei stained with Propidium iodide (PI) was taken as a measure of apoptotic cells. 3.5-4×10^4 cells were plated in 24-well plates, transfected with siRNA for 48 hrs, and then treated with indicated concentration of test compounds in fresh media. After 24 hrs of treatment, both floating and adherent cells were harvested by centrifugation. Cell pellets were resuspended in 400 μl of hypotonic PI buffer, containing 40 mM Tri-sodium citrate (Merck), 0.3% Triton X-100 (Sigma-Aldrich) and 50 μg/ml Propidium iodide (Sigma-Aldrich) in PBS, and incubated at room temperature for 10 minutes in dark. The flow cytometric analysis of PI stained nuclei was performed and the recorded data was analyzed using a FACScan flow cytometer and software (Becton Dickinson) respectively.
# In experiments using pan-caspase inhibitor, cells were kept in growth media containing 30 μM Z-VAD-FMK starting from 18 hrs after transfection till the PI staining.
# The T98G cells transfected with siRNA for 48 hrs were given drug treatments for 24 hrs and were subsequently lysed, and their nuclei were stained using hypotonic propidium iodide buffer. The lysates were analysed for changes in the sub-G0/G1 fraction of fragmented nuclei by flow cytometry (FACS) (FIG. 1B). Condensation and fragmentation of nucleus is a key biochemical feature of apoptosis and sub-G0/G1 analysis has been widely used for detection of apoptosis (FEBS Lett., 1986, 194(2):347-50; Cytometry, 1991, 12(4):323-329; Nature Protocols, 2006, 1:1458-1461).
# [4] = tested on: T98G glioblastoma cells; assay: Colony formation assay, T98G
# Text: (§2) Cells plated in very low density (4-6×10^3) in 6-well plates were allowed to grow for about 7 days until they form small colonies. These cells were then transfected with Scrambled or PME-1 siRNA using Lipofectamine RNAiMAX reagent (Invitrogen) according to the manufacturer's instructions. After 48 hrs, treatments were given with indicated concentration of chemical drugs for another 48 hrs. Cell colonies were washed with PBS, fixed with 3.7% formaldehyde and stained with 0.2% crystal violet solution (made in 10% ethanol) for 15 minutes at room temperature each. Excess stain was removed by repeated washings with PBS. Plates were dried and pictures were taken with Olympus SP-600UZ camera or Epson perfection V700 scanner and analysed with ImageJ.
# (§3) Next, the effect of PME-1 expression on the sensitivity of glioblastoma cells to STS was tested by colony formation assay in T98G glioblastoma cells and another glioblastoma cell line U118MG. For this experiment, these cells were grown in 6-well plates until the formation of small colonies which were then transfected with Scrambled or PME-1 siRNA for 48 hrs followed by treatment with STS at the indicated concentrations for another 48 hrs. […] Similar results were obtained with both glioblastoma cell lines.
# [5] = tested on: Caspase-3/7 in T98G cells; assay: Caspase-3 and -7 activity, Caspase-Glo 3/7 Assay
# Description: Caspase-3 and -7 activity was measured by luminescence based method, which utilize a substrate containing Caspase-3 and -7 target peptide DEVD, named Caspase-Glo 3/7 Assay (Promega Corp.). Assays were performed in white polystyrene 96-well plates (Nunc, Thermo Fisher Scientific Inc.) according to manufacturer's instructions and luminescence was measured with Perkin Elmer Victor2 Plate Reader.
# [6] = tested on: T98G glioblastoma cells; assay: Cell viability assay, CellTiter-glo (CTG)
# Description: Cell viability was determined by CellTiter-glo (CTG) assay which measures the cellular ATP levels as an indicator of metabolically active and viable cells. CTG reagent kit was purchased from Promega Corp. and assays were performed according to their recommendations. Assays were performed in white polystyrene 96-well plates (Nunc, Thermo Fisher Scientific Inc.) and luminescence was measured with Perkin Elmer Victor2 Plate Reader.
# [7] = tested on: U118MG glioblastoma cells; assay: Colony formation assay, U118MG
# Text: as §2, §3
# [8] = PME-1 siRNA 48 hrs then drug 48 hrs
# [9] = scrambled siRNA (intact PME-1), drug 48 hrs
molecule,measurement,setting,value
COC(=O)[C@@]1(O)C[C@H]2O[C@]1(C)n1c3ccccc3c3c4c(c5c6ccccc6n2c5c31)C(=O)NC4 [K252a],"cell killing activity, colony formation",[1],enhanced the cell killing activity
same,"cell killing activity, colony formation",[2],enhanced the cell killing activity
same,apoptotic nuclear fragmentation (sub-G0/G1 fraction),[3],levels even higher than STS itself
"CN[C@@H]1C[C@H]2O[C@@](C)([C@@H]1OC)n1c3ccccc3c3c4c(c5c6ccccc6n2c5c31)C(=O)NC4 [STS, [9S-(9α,10β,11β,13α)]-2,3,10,11,12,13-Hexa-hydro-10-methoxy-9-methyl-11-(methylamino)-9,13-epoxy-1H,9H-diindolo[1,2,3-gh:3′,2′,1′-lm]pyrrolo[3,4-j][1,7]benzo diazonin-1-one]","cell killing activity, colony formation",[1],enhanced the cell killing activity
same,"cell killing activity, colony formation",[2],enhanced the cell killing activity
same,colony formation (colonogenic potential),[4]; [8],almost complete loss of colonies
same,colony formation (colonogenic potential),[4]; [9],did not respond well
same,apoptotic nuclear fragmentation (sub-G0/G1 fraction),[3],very high level of nuclear fragmentation; also recorded: induce apoptosis in a dose dependent manner; also recorded: highly sensitive to STS induced cell death even at lowest concentrations
same,concentration at which drug alone started inducing cell death,[3]; control (Scrambled siRNA transfected) T98G cells,higher than 50 nM
same,concentration at which limited cell death was observed with drug alone,[3]; untransfected T98G cells,higher than 30 nM
same,increase of Caspase-3/7 activity,[5]; PME-1 depletion in combination with STS treatment,above 6 fold
same,cell viability (CTG),[6]; PME-1 siRNA plus STS treatment,drastic decrease in the cell viability
same,colony formation (colonogenic potential),[7]; [8],almost complete loss of colonies
same,colony formation (colonogenic potential),[7]; [9],did not respond well
C=C1[C@@H](O)[C@@H]2O[C@]3(CC[C@H](/C=C/[C@@H](C)[C@@H]4CC(C)=C[C@@]5(O[C@H](C[C@@](C)(O)C(=O)O)CC[C@H]5O)O4)O3)CC[C@H]2O[C@@H]1[C@@H](O)C[C@H](C)[C@H]1O[C@@]2(CCCCO2)CC[C@H]1C [okadaic acid],effect on PME-1 siRNA and STS mediated apoptosis (nuclear fragmentation),[3]; PP2A inhibitor pre-treatment 24 hrs prior STS treatment,sufficient to rescue cells
z-VAD-fmk,effect on PME-1 siRNA and STS mediated apoptosis (nuclear fragmentation),"[3]; PME-1 siRNA plus STS, pan-caspase inhibitor 30 μM throughout the experiment",complete reversal
"C[C@]12O[C@H](C[C@]1(O)CO)n1c3ccccc3c3c4c(c5c6ccccc6n2c5c31)CNC4=O [CEP-701, (9S,10S,12R)-2,3,9,10,11,12-Hexahydro-10-hydroxy-10-(hydroxymethyl)-9-methyl-9,12-epoxy-1H-diindolo[1,2,3-fg:3′,2′,1′-kl]pyrrolo[3,4-i][1,6]benzo di-azocin-1-one]",apoptotic nuclear fragmentation (sub-G0/G1 fraction),[3],levels even higher than STS itself
TRAIL,apoptotic nuclear fragmentation (sub-G0/G1 fraction),[3],did not show the same trend
"CN[C@@H]1C[C@H]2O[C@@](C)([C@@H]1OC)n1c3ccccc3c3c4c(c5c6ccccc6n2c5c31)C(=O)N[C@H]4O [UCN-01, (9S)-2,3,10,11,12,13-Hexahydro-3α-hydroxy-10α-methoxy-9-methyl-11α-methyl amino-9β,13β-epoxy-1H,9H-diindolo[1,2,3-gh:3′,2′,1′-lm]pyrrolo[3,4-j][1,7]benzo diazonin-1-one]",apoptotic nuclear fragmentation (sub-G0/G1 fraction),[3],levels even higher than STS itself
"PME-1 siRNA: PME-1 siRNA 5′-GGA AGU GAG UCU AUA AGC A-3′; SEQ ID NO:1 (GGAAGUGAGUCUAUAAGCA; listed as RNA, chemistry not given here)",increase of Caspase-3/7 activity,[5]; PME-1 depletion alone,more than 2 fold
same,cell viability (CTG),[6]; PME-1 siRNA alone,reduced cell viability by small fraction
"O=C1NC(=O)c2c1c1c3ccccc3n3c1c1c2c2ccccc2n1C1CCC3O1 [SB 218078, 9,10,11,12-Tetrahydro-9,12-epoxy-1H-diindolo[1,2,3-fg:3′,2′,1′-kl]pyrrolo[3,4-i][1,6]benzodi-azocine-1,3(2H)-dione]",apoptotic nuclear fragmentation (sub-G0/G1 fraction),[3],moderate levels of apoptosis at higher concentration
"CO[C@@H]1[C@H](N(C)C(=O)c2ccccc2)C[C@H]2O[C@]1(C)n1c3ccccc3c3c4c(c5c6ccccc6n2c5c31)C(=O)NC4 [PKC412, [9S-(9α, 10β,11β,13α)]-N-(2,3,10,11,12,13-Hexahydro-10-methoxy-9-methyl-1-oxo-9,13-epoxy-1H,9H-diindolo[1,2,3-gh:3′,2′,1′-lm]pyrrolo[3,4-j][1,7]benzodiazonin-11-yl)-N-methyl benzamide]","cell killing activity, colony formation",[1],enhanced the cell killing activity
same,"cell killing activity, colony formation",[2],enhanced the cell killing activity
same,apoptotic nuclear fragmentation (sub-G0/G1 fraction),[3],levels even higher than STS itself
CC1CNCCN1S(=O)(=O)c1cccc2cnccc12 (centres unmarked) [H7],apoptotic nuclear fragmentation (sub-G0/G1 fraction),[3],moderate
